According to patent US6265426A, “Triazole derivatives” (Hoffmann-La Roche Inc., priority 1999, dated 2001):
Where a name gives a salt, the structure may show the parent alone.

biological target: T1, NMDA receptor (Rattus norvegicus, UniProt P35439+Q00960); assay: [3H] Compound A (R-(R*,S*)]-α-(4-Hydroxy-phenyl)-β-methyl-4-(phenyl-methyl)-1-piperidine propanol) binding, displacement on rat brain membranes (NMDA receptor subtype); conditions: displacement of 5 nM [3H] Compound A, rat whole brain minus cerebellum and medulla oblongata membranes, pH 7.4, 2 hours at 4° C.
T1 construct: Membranes were prepared by homogenization of the whole brain minus cerebellum and medulla oblongata; from tissue; host or cells: rat whole brain minus cerebellum and medulla oblongata, membranes
Procedure: ^3 H R-(R*,S*)]-α-(4-Hydroxy-phenyl)-β-methyl-4-(phenyl-methyl)-1-piperidine propanol (compound A) binding
Male Fullinsdorf albino rats weighing between 150-200 g were used. Membranes were prepared by homogenization of the whole brain minus cerebellum and medulla oblongata with a Polytron (10.000 rpm, 30 seconds), in 25 volumes of a cold Tris-HCl 50 mM, EDTA 10 mM, pH 7.1 buffer. The homogenate was centrifuged at 48.000 g for 10 minutes at 4° C. The pellet was resuspended using the Polytron in the same volume of buffer and the homogenate was incubated at 37° C. for 10 minutes. After centrifugation the pellet was homogenized in the same buffer and frozen at -80° C. for at least 16 hours but not more than 10 days. For the binding assay the homogenate was thawed at 37° C., centrifuged and the pellet was washed three times as above in a Tris-HCl 5 mM, pH 7.4 cold buffer. The final pellet was resuspended in the same buffer and used at a final concentration of 200 μg of protein/ml.
Compound A binding experiments were performed using a Tris-HCl 50 mM, pH 7.4 buffer. For displacement experiments 5 nM of Compound A were used and non specific binding was measured using 10 μM of tetrahydroisoquinoline and usually it accounts for 10% of the total. The incubation time was 2 hours at 4° C. and the assay was stopped by filtration on Whatmann GF/B glass fiber filters (Unifilter-96, Packard, Zutrich, Switzerland). The filters were washed 5 times with cold buffer. The radioactivity on the filter was counted on a Packard Top-count microplate scintillation counter after addition of […] of microscint 40 (Canberra Packard S.A., Zurich, Switzerland).
The effects of compounds were measured using a minimum of 8 concentrations and repeated at least once. The pooled normalized values were analyzed using a non-linear regression calculation program which provide IC50 with their relative upper and lower 95% confidence limits (RS1, BBN, USA). The IC50 value refers to the concentration of a compound needed to give 50% inhibition, i.e., the concentration at which 50% of the ligands bonded to the recept or are displaced.
Concentrations higher than 10 μM were not tested.

T1 sequence (Q00960 27-1482, other chains not shown): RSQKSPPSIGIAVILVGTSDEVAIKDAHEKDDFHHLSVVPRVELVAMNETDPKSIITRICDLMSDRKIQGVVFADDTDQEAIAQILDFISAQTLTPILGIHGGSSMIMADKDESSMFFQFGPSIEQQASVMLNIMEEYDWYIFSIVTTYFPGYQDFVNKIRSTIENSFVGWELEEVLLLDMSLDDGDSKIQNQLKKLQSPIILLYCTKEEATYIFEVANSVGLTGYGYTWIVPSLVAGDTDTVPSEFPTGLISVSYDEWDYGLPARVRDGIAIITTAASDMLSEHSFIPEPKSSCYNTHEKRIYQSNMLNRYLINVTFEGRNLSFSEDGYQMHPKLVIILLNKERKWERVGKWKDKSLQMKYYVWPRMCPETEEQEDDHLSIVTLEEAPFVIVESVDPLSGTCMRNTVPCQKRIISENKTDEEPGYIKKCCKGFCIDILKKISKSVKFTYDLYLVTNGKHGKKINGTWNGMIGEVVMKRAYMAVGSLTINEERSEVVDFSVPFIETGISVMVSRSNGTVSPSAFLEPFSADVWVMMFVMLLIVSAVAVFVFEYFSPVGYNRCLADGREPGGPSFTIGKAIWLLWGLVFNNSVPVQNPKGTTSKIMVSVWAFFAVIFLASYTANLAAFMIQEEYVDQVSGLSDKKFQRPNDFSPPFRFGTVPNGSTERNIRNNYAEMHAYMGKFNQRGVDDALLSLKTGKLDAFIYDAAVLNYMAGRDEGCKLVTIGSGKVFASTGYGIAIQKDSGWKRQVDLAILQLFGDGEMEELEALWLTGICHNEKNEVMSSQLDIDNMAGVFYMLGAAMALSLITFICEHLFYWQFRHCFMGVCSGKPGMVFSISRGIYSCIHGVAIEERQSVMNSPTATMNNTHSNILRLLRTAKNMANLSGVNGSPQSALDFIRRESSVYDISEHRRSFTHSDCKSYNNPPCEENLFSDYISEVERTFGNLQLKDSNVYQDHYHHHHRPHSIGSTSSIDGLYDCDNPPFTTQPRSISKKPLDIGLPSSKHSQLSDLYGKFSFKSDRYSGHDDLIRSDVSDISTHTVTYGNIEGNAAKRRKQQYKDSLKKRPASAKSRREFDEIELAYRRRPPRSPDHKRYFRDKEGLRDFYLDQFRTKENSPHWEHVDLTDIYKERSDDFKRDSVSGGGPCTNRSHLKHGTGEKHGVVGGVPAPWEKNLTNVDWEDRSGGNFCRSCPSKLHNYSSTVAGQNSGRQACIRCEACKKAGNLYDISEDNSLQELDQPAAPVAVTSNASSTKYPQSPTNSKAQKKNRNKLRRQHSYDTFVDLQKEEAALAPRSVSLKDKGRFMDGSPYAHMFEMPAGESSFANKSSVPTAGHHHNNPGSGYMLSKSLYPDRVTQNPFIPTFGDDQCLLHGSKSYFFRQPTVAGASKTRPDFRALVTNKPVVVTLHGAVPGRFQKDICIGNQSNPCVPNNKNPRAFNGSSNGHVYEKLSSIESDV

| IC50 | Structure (SMILES) |
| --- | --- |
| 330 nM | CCN(CC)Cc1cccc(-c2n[nH]c(-c3ccc(OC)cc3)n2)c1 [Example 52, Diethyl-{3-[5-(4-methoxy-phenyl)-1H-[1,2,4]triazol-3-yl]-benzyl}-amine hydrochloride] |
| 8.3 nM | COc1ccc(-c2nc(-c3cccc(CN)c3)n[nH]2)cc1 [Example 73, 3-[5-(4-Methoxy-phenyl)-1H-[1,2,4]triazol-3-yl]-benzylamine hydrochloride] |

The next lines start with the compound.

| Structure (SMILES) | IC50 |
| --- | --- |
| COc1ccc(-c2nc(-c3cccc(CN4CCCC4)c3)n[nH]2)cc1 [Example 51, 5-(4-Methoxy-phenyl)-3-(3-pyrrolidin-1-ylmethyl-phenyl)-1H-[1,2,4]triazole hydrochloride] | 58 nM |
| Clc1ccc(-c2nc(-c3cccc(CN4CCCC4)c3)n[nH]2)cc1 [Example 49, 5-(4-Chloro-phenyl)-3-(3-pyrrolidin-1-ylmethyl-phenyl)-1H-[1,2,4]triazole hydrochloride] | 87 nM |
| c1cc(CN2CCCC2)cc(-c2n[nH]c(-c3ccc4ccccc4c3)n2)c1 [Example 25, 5-Naphthalen-2-yl-3-(3-pyrrolidin-1-ylmethyl-phenyl)-1H-[1,2,4]triazole hydrochloride] | 1000 nM |
